Where two headings read alike, the source gives them in different places.

The results in this text go back to US8415308B2, “1′-substituted-carba-nucleoside prodrugs for antiviral treatment” (Gilead Sciences, Inc., priority 2010, dated 2013).

One experiment relates to Replicon cells. The experiment is described as follows: HCV EC50 determination in replicon cells (luciferase). In kind it is cell-based. The following applies: Hepatitis C virus, 72 h. The procedure: Replicon cells were seeded in 96-well plates at a density of 8×10^3 cells per well in 100 μL of culture medium, excluding Geneticin. Compound was serially diluted in 100% DMSO and then added to the cells at a 1:200 dilution, achieving a final concentration of 0.5% DMSO and a total volume of 200 μL. Plates were incubated at 37° C. for 3 days, after which culture medium was removed and cells were lysed in lysis buffer provided by Promega's luciferase assay system. Following the manufacturer's instruction, 100 μL of luciferase substrate was added to the lysed cells and luciferase activity was measured in a TopCount luminometer.
The specific activity observed may vary according to and depending on the particular replicon tested, the active compound selected or whether there are present pharmaceutical carriers, as well as the type of formulation and mode of administration employed, and such expected variations or differences in the results are contemplated in accordance with practice of the present invention.
On the technique in general: In antiviral work, replicon cells carry a viral genome segment that copies itself.

For another experiment, the target named is T1, HCV Δ21 NS5b polymerase (Hepatitis C virus genotype 1b, UniProt Q9WMX2).
T1 construct: 75 nM HCV Δ21 NS5b polymerase
The experiment is described as follows: HCV IC50 determination, NS5b polymerase assay. It is filed as biochemical. The procedure:
Assay Protocol: NS5b polymerase assay (40 μL) was assembled by adding 28 μL polymerase mixture (final concentration: 50 mM Tris-HCl at pH 7.5, 10 mM KCL, 5 mM MgCl2, 1 mM DTT, 10 mM EDTA, 4 ng/μL of RNA template, and 75 nM HCV Δ21 NS5b polymerase) to assay plates followed by 4 μL of compound dilution. The polymerase and compound were pre-incubated at 35° C. for 10 minute before the addition of 8 μL of nucleotide substrate mixture (33P-α-labeled competing nucleotide at KM and 0.5 mM of the remaining three nucleotides). The assay plates were covered and incubated at 35° C. for 90 min. Reactions were then filtered through 96-well DEAE-81 filter plates via vacuum. The filter plates were then washed under vacuum with multiple volumes of 0.125 M NaHPO4, water, and ethanol to remove unincorporated label. Plates were then counted on TopCount to assess the level of product synthesis over background controls. The IC50 value is determined using Prism fitting program.

The mark [1] stands for this setting: replicon cells, 3 days, luciferase activity, read-out: EC50.

As for `C[C@@]1(O)[C@H](O)[C@@H](CO)O[C@@]1(C#N)c1ccc2c(N)ncnn12` [Compound 5], the 50% effective concentration (EC50) – broadly, the concentration that produces a half-maximal response – in the experiment with Replicon cells (setting [1]) is over 89000 nM. As to `CC(C)OC(=O)[C@H](C)NP(=O)(OC[C@H]1O[C@@](C#N)(c2ccc3c(N)ncnn23)[C@](C)(O)[C@@H]1O)Oc1ccccc1` (stereo partly drawn) [Compound 6], the concentration for a half-maximal effect (EC50) in the experiment with Replicon cells is 480 to 1800 nM. As to `C[C@@]1(O)[C@H](O)[C@@H](COP(=O)(O)OP(=O)(O)OP(=O)(O)O)O[C@@]1(C#N)c1ccc2c(N)ncnn12` [Compound 7], on HCV Δ21 NS5b polymerase, the half-maximal inhibitory concentration (IC50) (as a rule, the concentration at which inhibition is half-maximal) was under 1000 nM.

In the experiment with Replicon cells, `CC(C)OC(=O)[C@H](C)N[P@](=O)(OC[C@H]1O[C@@](C#N)(c2ccc3c(N)ncnn23)[C@](C)(O)[C@@H]1OC(=O)C(C)C)Oc1ccccc1` [Compound 8A] showed a concentration for a half-maximal effect (EC50) of 96 to 360 nM.

In turn, `CC(C)OC(=O)[C@H](C)N[P@@](=O)(OC[C@H]1O[C@@](C#N)(c2ccc3c(N)ncnn23)[C@](C)(O)[C@@H]1OC(=O)C(C)C)Oc1ccccc1` [Compound 8B] came in with an EC50 with Replicon cells of 460 to 1900 nM. Take `CC(C)OC(=O)[C@H](C)NP(=O)(OC[C@H]1O[C@@](C#N)(c2ccc3c(N)ncnn23)[C@](C)(O)[C@@H]1OC(=O)C(C)C)Oc1ccccc1` (stereo partly drawn) [Compound 8]: the EC50 in the experiment on Replicon cells lay within 140 to 520 nM. Take `CC(C)OC(=O)[C@H](C)NP(=O)(N[C@@H](C)C(=O)OC(C)C)OC[C@H]1O[C@@](C#N)(c2ccc3c(N)ncnn23)[C@](C)(O)[C@@H]1O` [Compound 61]: in the experiment with Replicon cells (setting [1]), the half-maximal effective concentration (EC50) was 51000 nM.

Turning to `CC(C)OC(=O)[C@H](C)NP(=O)(N[C@@H](C)C(=O)OC(C)C)OC[C@H]1O[C@@](C#N)(c2ccc3c(N)ncnn23)[C@](C)(O)[C@@H]1OC(=O)C(C)C` [Compound 64], the concentration for a half-maximal effect (EC50) in the experiment on Replicon cells (setting [1]) amounted to 5380 nM. Consider `CC(=O)O[C@@H]1[C@@H](COP(=O)(N[C@@H](C)C(=O)OC(C)C)N[C@@H](C)C(=O)OC(C)C)O[C@@](C#N)(c2ccc3c(N)ncnn23)[C@]1(C)O` [Compound 65], for which, in the experiment with Replicon cells (setting [1]), the EC50 was 8400 nM.
